The values below come from PubChem BioAssay AID651889 (Broad Institute, 2012).

As usually defined, the IC50 is the midpoint of a concentration-inhibition curve.

Active and inactive are the calls of the source.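 How the source made its calls: active means IC50 under 25 times the IC50 of the reference antimalarial drug in the parasite growth test; inactive means the rest.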

The assay relates to P. falciparum NF54 in erythrocytes, 3H-hypoxanthine incorporation, 72 h. The assay is described as follows: antimalarial activity against erythrocytic parasites – NF54 strain, plate reader, dry powder, dose response (AID 651889).

On to `C[C@@H]1CN([C@@H](C)CO)C(=O)c2cccc(NC(=O)c3ccncc3)c2O[C@H]1CN(C)Cc1ccc(Oc2ccccc2)cc1`, for which the IC50 was 580 nM (inactive).
